# Tests used:
# Format in all cases: in vivo
# [1] = tested on: barnyardgrass (Echinochloa crus-galli); assay: Test A preemergence soil spray, visual injury rating 0-100; details: 10 days, 0 = no effect, 100 = complete control; for Barnyardgrass plant response rating (0-100): 31 g ai/ha; for Barnyardgrass plant response rating (0 to 100 scale): 125 g ai/ha
# Source text: (§1) Seeds of plant species selected from barnyardgrass (Echinochloa crus-galli), blackgrass (Alopecurus myosuroides), corn (Zea mays), foxtail, giant (giant foxtail, Setaria faberi), green foxtail (Setaria viridis), goosegrass (Eleusine indica), kochia (Bassia scoparia), oat, wild (wild oat, Avena fatua), palmer (palmer amaranth, palmer pigweed, Amaranthus palmeri), ragweed (common ragweed, Ambrosia artemisiifolia), ryegrass, Italian (italian ryegrass, Lolium multiflorum), soybean (Glycine max) and wheat (Triticum aestivum) were planted into a blend of loam soil and sand and treated preemergence with a directed soil spray using test chemicals formulated in a non-phytotoxic solvent mixture which included a surfactant.
# (§2) At the same time, plants selected from these crops and weed species and also galium (catchweed bedstraw, Galium aparine) and horseweed (Erigeron canadensis) were planted in pots containing the same blend of loam soil and sand and treated with postemergence applications of test chemicals formulated in the same manner. Plants ranged in height from 2 to 10 cm and were in the one- to two-leaf stage for the postemergence treatment. Treated plants and untreated controls were maintained in a greenhouse for 10 days, after which time all treated plants were compared to untreated controls and visually evaluated for injury. Plant response ratings, summarized in Table A, are based on a 0 to 100 scale where 0 is no effect and 100 is complete control. A dash (-) response means no test result.
# [2] = tested on: blackgrass (Alopecurus myosuroides); assay: as above; details: 10 days, 0 = no effect, 100 = complete control; for Blackgrass plant response rating (0-100): 31 g ai/ha; for Blackgrass plant response rating (0 to 100 scale): 125 g ai/ha
# Source text: as §1, §2
# [3] = tested on: corn (Zea mays); assay: as above; details: 10 days, 0 = no effect, 100 = complete control; for Corn plant response rating (0-100): 31 g ai/ha; for Corn plant response rating (0 to 100 scale): 125 g ai/ha
# Source text: as §1, §2
# [4] = tested on: kochia (Bassia scoparia); assay: as above; details: 10 days, 0 = no effect, 100 = complete control; for Kochia plant response rating (0-100): 31 g ai/ha; for Kochia plant response rating (0 to 100 scale): 125 g ai/ha
# Source text: as §1, §2
# [5] = tested on: oat, wild (wild oat, Avena fatua); assay: as above; details: 10 days, 0 = no effect, 100 = complete control; for Oat, Wild plant response rating (0-100): 31 g ai/ha; for Oat, Wild plant response rating (0 to 100 scale): 125 g ai/ha
# Source text: as §1, §2
# [6] = tested on: palmer (palmer amaranth, palmer pigweed, Amaranthus palmeri); assay: as above; details: 10 days, 0 = no effect, 100 = complete control; for Amaranth, Palmer plant response rating (0-100): 31 g ai/ha; for Amaranth, Palmer plant response rating (0 to 100 scale): 125 g ai/ha
# Source text: as §1, §2
# [7] = tested on: ragweed (common ragweed, Ambrosia artemisiifolia); assay: as above; details: 10 days, 0 = no effect, 100 = complete control; for Ragweed plant response rating (0-100): 31 g ai/ha; for Ragweed plant response rating (0 to 100 scale): 125 g ai/ha
# Source text: as §1, §2
# [8] = tested on: ryegrass, Italian (italian ryegrass, Lolium multiflorum); assay: as above; details: 10 days, 0 = no effect, 100 = complete control; for Ryegrass, Italian plant response rating (0-100): 31 g ai/ha; for Ryegrass, Italian plant response rating (0 to 100 scale): 125 g ai/ha
# Source text: as §1, §2
# [9] = tested on: soybean (Glycine max); assay: as above; details: 10 days, 0 = no effect, 100 = complete control; for Soybean plant response rating (0-100): 31 g ai/ha; for Soybean plant response rating (0 to 100 scale): 125 g ai/ha
# Source text: as §1, §2
# [10] = tested on: wheat (Triticum aestivum); assay: as above; details: 10 days, 0 = no effect, 100 = complete control; for Wheat plant response rating (0-100): 31 g ai/ha; for Wheat plant response rating (0 to 100 scale): 125 g ai/ha
# Source text: as §1, §2
# [11] = tested on: barnyardgrass (Echinochloa crus-galli); assay: Test A postemergence application, visual injury rating 0-100; details: Postemergence
# Source text: as §1, §2
# [12] = tested on: blackgrass (Alopecurus myosuroides); assay: as above; details: Postemergence
# Source text: as §1, §2
# [13] = tested on: corn (Zea mays); assay: as above; details: Postemergence
# Source text: as §1, §2
# [14] = tested on: galium (catchweed bedstraw, Galium aparine); assay: as above; details: Postemergence
# Source text: as §1, §2
# [15] = tested on: horseweed (Erigeron canadensis); assay: as above; details: Postemergence
# Source text: as §1, §2
# [16] = tested on: kochia (Bassia scoparia); assay: as above; details: Postemergence
# Source text: as §1, §2
# [17] = tested on: oat, wild (wild oat, Avena fatua); assay: as above; details: Postemergence
# Source text: as §1, §2
# [18] = tested on: palmer (palmer amaranth, palmer pigweed, Amaranthus palmeri); assay: as above; details: Postemergence
# Source text: as §1, §2
# [19] = tested on: ragweed (common ragweed, Ambrosia artemisiifolia); assay: as above; details: Postemergence
# Source text: as §1, §2
# [20] = tested on: ryegrass, Italian (italian ryegrass, Lolium multiflorum); assay: as above; details: Postemergence
# Source text: as §1, §2
# [21] = tested on: soybean (Glycine max); assay: as above; details: Postemergence
# Source text: as §1, §2
# [22] = tested on: wheat (Triticum aestivum); assay: as above; details: Postemergence
# Source text: as §1, §2
# [23] = 31 g ai/ha, greenhouse 10 days, 0 no effect, 100 complete control
# [24] = 125 g ai/ha, 10 days, 0 is no effect, 100 is complete control
structure (smiles),measurement,setting,value
CCCS(=O)(=O)OC(=O)C1C=CC(NC(=O)C2(C)CN(c3cc(Cl)cc(Cl)c3)C(=O)O2)C1 (mixture of isomers) [Compound 79],Barnyardgrass plant response rating (0-100),[1],30
same,Barnyardgrass plant response rating (0 to 100 scale),[1],90
same,Blackgrass plant response rating (0-100),[2],10
same,Blackgrass plant response rating (0 to 100 scale),[2],30
same,Corn plant response rating (0-100),[3],0
same,Corn plant response rating (0 to 100 scale),[3],30
same,Kochia plant response rating (0-100),[4],30
same,Kochia plant response rating (0 to 100 scale),[4],70
same,"Oat, Wild plant response rating (0-100)",[5],20
same,"Oat, Wild plant response rating (0 to 100 scale)",[5],30
same,"Amaranth, Palmer plant response rating (0-100)",[6],80
same,"Amaranth, Palmer plant response rating (0 to 100 scale)",[6],90
same,Ragweed plant response rating (0-100),[7],0
same,Ragweed plant response rating (0 to 100 scale),[7],20
same,"Ryegrass, Italian plant response rating (0-100)",[8],20
same,"Ryegrass, Italian plant response rating (0 to 100 scale)",[8],80
same,Soybean plant response rating (0-100),[9],0
same,Soybean plant response rating (0 to 100 scale),[9],70
same,Wheat plant response rating (0-100),[10],10
same,Wheat plant response rating (0 to 100 scale),[10],80
same,Barnyardgrass plant response rating (0 to 100 scale),[11]; [23],90
same,Barnyardgrass plant response rating (0 to 100 scale),[11]; [24],90
same,Blackgrass plant response rating (0 to 100 scale),[12]; [23],60
same,Blackgrass plant response rating (0 to 100 scale),[12]; [24],90
same,Corn plant response rating (0 to 100 scale),[13]; [23],90
same,Corn plant response rating (0 to 100 scale),[13]; [24],100
same,Galium plant response rating (0 to 100 scale),[14]; [23],80
same,Galium plant response rating (0 to 100 scale),[14]; [24],80
same,Horseweed plant response rating (0 to 100 scale),[15]; [23],40
same,Horseweed plant response rating (0 to 100 scale),[15]; [24],70
same,Kochia plant response rating (0 to 100 scale),[16]; [23],70
same,Kochia plant response rating (0 to 100 scale),[16]; [24],80
same,"Oat, Wild plant response rating (0 to 100 scale)",[17]; [23],90
same,"Oat, Wild plant response rating (0 to 100 scale)",[17]; [24],90
same,"Amaranth, Palmer / Pigweed, Palmer plant response rating (0 to 100 scale)",[18]; [23],70
same,"Amaranth, Palmer / Pigweed, Palmer plant response rating (0 to 100 scale)",[18]; [24],90
same,Ragweed plant response rating (0 to 100 scale),[19]; [23],50
same,Ragweed plant response rating (0 to 100 scale),[19]; [24],60
same,"Ryegrass, Italian plant response rating (0 to 100 scale)",[20]; [23],50
same,"Ryegrass, Italian plant response rating (0 to 100 scale)",[20]; [24],60
same,Soybean plant response rating (0 to 100 scale),[21]; [23],40
same,Soybean plant response rating (0 to 100 scale),[21]; [24],90
same,Wheat plant response rating (0 to 100 scale),[22]; [23],80
same,Wheat plant response rating (0 to 100 scale),[22]; [24],90
CC1(C(=O)NC2CC=C(C(=O)NS(=O)(=O)C3CC3)C2)CN(c2cc(Cl)cc(Cl)c2)C(=O)O1 (stereo not shown) [Compound 75],Barnyardgrass plant response rating (0-100),[1],0
same,Barnyardgrass plant response rating (0 to 100 scale),[1],80
same,Blackgrass plant response rating (0-100),[2],20
same,Blackgrass plant response rating (0 to 100 scale),[2],40
same,Corn plant response rating (0-100),[3],0
same,Corn plant response rating (0 to 100 scale),[3],0
same,Kochia plant response rating (0-100),[4],50
same,Kochia plant response rating (0 to 100 scale),[4],90
same,"Oat, Wild plant response rating (0-100)",[5],0
same,"Oat, Wild plant response rating (0 to 100 scale)",[5],0
same,"Amaranth, Palmer plant response rating (0-100)",[6],50
same,"Amaranth, Palmer plant response rating (0 to 100 scale)",[6],90
same,Ragweed plant response rating (0-100),[7],10
same,Ragweed plant response rating (0 to 100 scale),[7],0
same,"Ryegrass, Italian plant response rating (0-100)",[8],10
same,"Ryegrass, Italian plant response rating (0 to 100 scale)",[8],70
same,Soybean plant response rating (0-100),[9],30
same,Soybean plant response rating (0 to 100 scale),[9],10
same,Wheat plant response rating (0-100),[10],0
same,Wheat plant response rating (0 to 100 scale),[10],40
same,Barnyardgrass plant response rating (0 to 100 scale),[11]; [23],80
same,Barnyardgrass plant response rating (0 to 100 scale),[11]; [24],90
same,Blackgrass plant response rating (0 to 100 scale),[12]; [23],0
same,Blackgrass plant response rating (0 to 100 scale),[12]; [24],80
same,Corn plant response rating (0 to 100 scale),[13]; [23],70
same,Corn plant response rating (0 to 100 scale),[13]; [24],90
same,Galium plant response rating (0 to 100 scale),[14]; [23],40
same,Galium plant response rating (0 to 100 scale),[14]; [24],80
same,Horseweed plant response rating (0 to 100 scale),[15]; [23],40
same,Horseweed plant response rating (0 to 100 scale),[15]; [24],70
same,Kochia plant response rating (0 to 100 scale),[16]; [23],80
same,Kochia plant response rating (0 to 100 scale),[16]; [24],80
same,"Oat, Wild plant response rating (0 to 100 scale)",[17]; [23],10
same,"Oat, Wild plant response rating (0 to 100 scale)",[17]; [24],90
same,"Amaranth, Palmer / Pigweed, Palmer plant response rating (0 to 100 scale)",[18]; [23],70
same,"Amaranth, Palmer / Pigweed, Palmer plant response rating (0 to 100 scale)",[18]; [24],90
same,Ragweed plant response rating (0 to 100 scale),[19]; [23],0
same,Ragweed plant response rating (0 to 100 scale),[19]; [24],60
same,"Ryegrass, Italian plant response rating (0 to 100 scale)",[20]; [23],50
same,"Ryegrass, Italian plant response rating (0 to 100 scale)",[20]; [24],70
same,Soybean plant response rating (0 to 100 scale),[21]; [23],20
same,Soybean plant response rating (0 to 100 scale),[21]; [24],50
same,Wheat plant response rating (0 to 100 scale),[22]; [23],70
same,Wheat plant response rating (0 to 100 scale),[22]; [24],80

# From US20260285850A1, “SUBSTITUTED OXAZOLIDINONES AND IMIDAZOLINONES AS HERBICIDES” (FMC CORPORATION, priority 2023, published 2026)
